# According to publication PMC9819389, “Antiandrogenic and Estrogenic Activity Evaluation of Oxygenated and Nitrated Polycyclic Aromatic Hydrocarbons Using Chemically Activated Luciferase Expression Assays” (International Journal of Environmental Research and Public …, 2022):
# Where two headings read alike, the source gives them in different places.
# Tests used:
# [1] = molecular target: T1, human ER (Homo sapiens, UniProt P03372); assay: ER-CALUX assay, estrogenic activity, U2OS-luc cells; type: cell-based; set-up: host or cells: human U2OS-luc (osteoblastic osteosarcoma) cells; conditions: for EC50 / REPmol (EC50): present study; for EC50: 24 h exposure; for REPmol (EC50): molar relative potency to E2, EC50-based
# T1 sequence (P03372 1-595): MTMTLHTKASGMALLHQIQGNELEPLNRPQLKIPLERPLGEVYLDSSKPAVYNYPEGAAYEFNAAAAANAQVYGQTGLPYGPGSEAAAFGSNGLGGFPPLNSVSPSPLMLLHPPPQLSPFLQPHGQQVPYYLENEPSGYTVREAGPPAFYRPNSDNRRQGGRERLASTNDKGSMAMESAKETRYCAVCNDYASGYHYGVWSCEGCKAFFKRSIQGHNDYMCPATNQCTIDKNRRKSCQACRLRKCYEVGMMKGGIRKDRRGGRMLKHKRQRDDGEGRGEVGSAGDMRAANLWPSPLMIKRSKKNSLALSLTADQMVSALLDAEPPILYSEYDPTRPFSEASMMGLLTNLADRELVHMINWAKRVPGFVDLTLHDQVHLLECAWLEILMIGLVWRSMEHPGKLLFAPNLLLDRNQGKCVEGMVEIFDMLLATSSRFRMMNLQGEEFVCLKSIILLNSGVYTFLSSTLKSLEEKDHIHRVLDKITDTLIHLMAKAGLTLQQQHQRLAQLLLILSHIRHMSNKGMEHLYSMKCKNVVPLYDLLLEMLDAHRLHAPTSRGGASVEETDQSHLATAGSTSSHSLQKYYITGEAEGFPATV
# [2] = molecular target: T2, human AR (Homo sapiens, UniProt P10275); set-up: method as in Otsuki et al. [38]; key: +, positive; conditions: previous study; ref Otsuki et al. [38]; cited from earlier work
# T2 sequence (P10275 1-920): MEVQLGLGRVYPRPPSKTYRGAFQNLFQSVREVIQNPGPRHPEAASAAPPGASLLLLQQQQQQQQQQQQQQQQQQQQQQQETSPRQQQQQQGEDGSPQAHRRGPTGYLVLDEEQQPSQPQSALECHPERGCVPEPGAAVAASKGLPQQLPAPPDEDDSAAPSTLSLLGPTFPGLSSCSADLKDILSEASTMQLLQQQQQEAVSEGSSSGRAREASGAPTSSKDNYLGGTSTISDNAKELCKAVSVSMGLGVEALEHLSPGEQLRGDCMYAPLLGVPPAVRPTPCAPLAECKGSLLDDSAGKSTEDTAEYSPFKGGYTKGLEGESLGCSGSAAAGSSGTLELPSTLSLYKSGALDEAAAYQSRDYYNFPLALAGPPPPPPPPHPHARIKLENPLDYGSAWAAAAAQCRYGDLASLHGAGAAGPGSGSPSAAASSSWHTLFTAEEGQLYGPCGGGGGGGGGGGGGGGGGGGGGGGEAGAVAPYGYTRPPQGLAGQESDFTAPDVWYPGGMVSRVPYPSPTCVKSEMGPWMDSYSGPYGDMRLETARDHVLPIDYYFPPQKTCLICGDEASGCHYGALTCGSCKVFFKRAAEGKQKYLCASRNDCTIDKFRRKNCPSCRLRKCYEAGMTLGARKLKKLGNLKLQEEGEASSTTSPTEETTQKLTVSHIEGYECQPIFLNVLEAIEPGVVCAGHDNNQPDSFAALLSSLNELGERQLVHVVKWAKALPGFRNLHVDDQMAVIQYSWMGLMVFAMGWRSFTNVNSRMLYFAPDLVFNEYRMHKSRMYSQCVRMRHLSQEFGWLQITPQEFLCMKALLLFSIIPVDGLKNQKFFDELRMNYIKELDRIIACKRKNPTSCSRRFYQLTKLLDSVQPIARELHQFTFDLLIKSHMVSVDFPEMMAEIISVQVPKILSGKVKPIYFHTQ
# [3] = molecular target: T2, human AR; assay: AR-CALUX assay, antiandrogenic (AR antagonistic) activity, U2OS-luc cells; type: cell-based; set-up: host or cells: human U2OS-luc (osteoblastic osteosarcoma) cells; conditions: for IC25 / REPmol (IC25): present study; for IC25: 24 h exposure with 100 pM DHT (EC50 level); for REPmol (IC25): molar relative potency to flutamide, IC25-based; for IC50: read-out: IC50; for inhibition of AR-mediated luciferase activity: coexposure to DHT at 10 nM (100 × EC50); for mode of AR inhibition: from coexposure to 10 nM DHT
# Protocol: (§1) The AR- and ER-CALUX assays for the polycyclic aromatic compounds were evaluated according to previously described methods, which used human U2OS-luc cells developed by BioDetection Systems b.v. (Amsterdam, The Netherlands). The cells are transfected stably with human AR and ER, respectively, and a luciferase reporter gene under their respective steroid receptor response elements. […] They were incubated at 37 °C in a humidified atmosphere containing 5% carbon dioxide. […] The medium was then removed, and the cells were lysed. A solution of luciferin was then added, and the luminescence intensity was measured with an ARVO™ X3 luminometer from PerkinElmer (Waltham, MA, USA). A sigmoid dose–response curve for a chemical was fitted to the Hill equation given by Equation (1) using SigmaPlot 11.0 from Systat Software Inc. (San Jose, CA, USA). y = min + (max − min)/(1 + (a1/x)^a^2)(1) where, y and x are the measured luciferase induction level and compound concentration, respectively. […] The REP values in mol base were obtained by dividing the ICs or ECs of the standard by the ICs or ECs of target compound, respectively.
# (§2) All measurements were conducted in triplicate wells. They were repeated twice and trice in the AR- and ER-CALUX assays, respectively, for each concentration in dose–response curve. […] Cell viability was confirmed using 3-(4,5-dimethylthiazol-2-yl)-2,5-diphenyltetrazolium bromide (MTT) assay. If the cell viability was <80% in the positive control, the corresponding exposure dose was considered cytotoxic and excluded from the calculation.
# [4] = tested on: U2OS-luc cells; assay: MTT cell viability (cytotoxicity) assay; conditions: cell viability <80% considered cytotoxic
# Protocol: as §2
# [5] = tested on: thyroid receptor (TR) α; set-up: method as in PMID 31071665; conditions: TRα activation; cited from earlier work
# [6] = molecular target: T2, human AR; assay: AR-CALUX assay, androgenic (agonistic) activity; type: cell-based; set-up: host or cells: human U2OS-luc (osteoblastic osteosarcoma) cells; conditions: data not shown
# Protocol: as §1
# [7] = molecular target: T1, human ER; set-up: method as in Machala et al. [36]; conditions: previous study; relative to E2; ref Machala et al. [36]; cited from earlier work
# [8] = tested on: ER; conditions: previous study; relative to E2; ref Šimečková et al. [44]; cited from earlier work
# [9] = tested on: ER; set-up: method as in Pieterse et al. [30]; conditions: previous study; relative to E2; ref Pieterse et al. [30]; cited from earlier work
# [10] = tested on: AR; set-up: method as in Okamura et al. [22]; key: +, positive; conditions: previous study; ref Okamura et al. [22]; cited from earlier work
# [11] = tested on: AR; conditions: previous study, relative to flutamide, cited from earlier work
# [12] = tested on: ER; set-up: method as in Boonen et al. [33]; conditions: previous study; relative to E2; ref Boonen et al. [33]; cited from earlier work
smiles,measurement,setting,value
"O=[N+]([O-])c1ccc2ccc3c([N+](=O)[O-])ccc4ccc1c2c43 [1,6-DNPy, 1,6-dinitropyrene]",EC50,[1],U (key: U: < 10% response of 1 nM E2; nd: not detected)
same,REPmol (EC50),[1],U (key: U: < 10% response of 1 nM E2; nd: not detected)
same,"antiandrogenic activity, Yeast",[2],+
same,inhibition at 0.1 µM,"[3]; at 0.1 μM (100 nM), maximum soluble concentration, read-out: inhibition of AR activation",> 20%
"O=[N+]([O-])c1ccc2ccc3cccc4ccc1c2c34 [1-NPy, 1-nitropyrene]",activation (level of the response to 1 nM E2),[1]; at 10 μM,14% activation at 10 μM
same,"antiandrogenic activity, Yeast",[2],+
same,IC25,[3],94 nM
same,REPmol (IC25),[3],1.4
same,IC50,[3],220 nM
"O=C1c2ccccc2-c2ccc([N+](=O)[O-])c3cccc1c23 [3-NBAO, 3-nitro-7H-benz[de]anthracen-7-one]","antiandrogenic activity, Yeast",[2],+
same,concentration at which cytotoxicity was confirmed,[4],1000 nM
same,inhibition of AR-mediated luciferase activity,[3]; compound at 30 nM,29%
same,inhibition of AR-mediated luciferase activity,[3]; compound at 300 nM,60%
same,mode of AR inhibition,[3],noncompetitive
same,IC25,[3],5.1 nM
same,REPmol (IC25),[3],23
same,IC50,[3],18 nM
same,REP50 to triiodothyronine (T3),[5],0.11
"O=[N+]([O-])c1ccc2c3c(cccc13)-c1ccccc1-2 [3-NFA, 3-nitrofluoranthene]",EC50,[1],U (< 10% response of 1 nM E2)
same,REPmol (EC50),[1],U (< 10% response of 1 nM E2)
same,"antiandrogenic activity, Yeast",[2],+
same,concentration above which inhibition of AR-mediated luciferase activity is attenuated (U-shaped curve),[3],> 300 nM
same,attenuation of antiandrogenic activity,[3]; at high concentrations compared to at 100 nM,approximately 40%
same,inhibition of AR-mediated luciferase activity,[3]; compound at 100 nM,26%
same,inhibition of AR-mediated luciferase activity,[3]; compound at 10 μM,82%
same,mode of AR inhibition,[3],noncompetitive
same,IC25,[3],5.3 nM
same,REPmol (IC25),[3],32
same,IC50,[3],14 nM
same,concentration above which AR-mediated luciferase activity increases (U-shaped curve),[3]; table entry,increase at > 0.3 μM
same,concentration at which weak androgenic activity was observed,[6],≥ 1 µM
same,"maximum androgenic induction, relative to the EC50 level of DHT",[6],< 16%
same,Emax,"[6]; read-out: maximum androgenic induction, level of maximum response of DHT exposure (10 nM)",< 8%
"O=C1c2ccccc2C(=O)c2c1ccc1ccccc21 [BAQ, 7,12-benz[a]anthracenequinone]","REPmol, MVLN",[7],1.4 × 10^−6
same,IC25,[3],2500 nM
same,REPmol (IC25),[3],0.056
same,IC50,[3],6400 nM
"c1ccc2cc3c(ccc4ccccc43)cc2c1 [B[a]A, benz[a]anthracene]","REPmol, T47D",[8],1.6 × 10^−6
same,"REPmol, U2OS",[9],<2 × 10^−9
same,"REPmol, MVLN",[7],7.9 × 10^−7
same,"antiandrogenic activity, PC3",[10],+
same,"REPmol, U2OS",[11]; ref Alvarez-Muñoz et al. [28],1.3
same,"REPmol, U2OS",[11]; ref Marin-Kuan et al. [29],0.4
"c1ccc2c(c1)cc1ccc3cccc4ccc2c1c34 [B[a]P, benzo[a]pyrene]","REPmol, T47D",[8],3.1 × 10^−6
same,"REPmol, VM7",[12],5.3 × 10^−6
same,"REPmol, U2OS",[9],2 × 10^−6
same,"antiandrogenic activity, PC3",[10],+
same,"REPmol, U2OS",[11]; ref Marin-Kuan et al. [29],0.4
same,"REPmol, U2OS",[11]; ref Pieterse et al. [30],0.1
"C[C@]12CC[C@@H]3c4ccc(O)cc4CC[C@H]3[C@@H]1CC[C@@H]2O [E2, 17β-estradiol, reference compound]","REPmol, T47D",[8],1
same,"REPmol, VM7",[12],1
same,"REPmol, U2OS",[9],1
"O=C1C(=O)c2ccccc2-c2ccccc21 [PhQ, phenanthrenequinone]",concentration at which cytotoxicity was confirmed,[4],1000 nM
same,IC25,[3],180 nM
same,REPmol (IC25),[3],0.63
same,IC50,[3],390 nM
"c1cc2ccc3cccc4ccc(c1)c2c34 [Py, pyrene]","REPmol, T47D",[8],5.3 × 10^−7
same,"antiandrogenic activity, PC3",[10],+
same,"REPmol, U2OS",[11]; ref Alvarez-Muñoz et al. [28],0.41
same,"REPmol, U2OS",[11]; ref Pieterse et al. [30],0.03
